Several values for one entry are separate records, joined by “and”; a condition that tells them apart may be missing. Equal entries are not always repeated. Non-standard residues stand in square brackets, D forms with d. Residues, ends and D or L forms follow the SMILES beside them. pS = N[C@@H](COP(=O)(O)O)C(=O)O
Assays:
Type in all cases: in vivo, mouse
MRL/lpr mice = test: Survival analysis in MRL/lpr lupus mice; conditions: female MRL/lpr mice, intravenous, 20 mice per group; NaCl control 25 weeks
Protocol: It has been determined that this mouse strain carries a mutation in the fas gene. Also, the MRL/lpr is a useful model to study behavioural and cognitive deficits found in autoimmune diseases and the efficacy of immunosuppressive agents [Monneaux et al., 2003, Eur. J. Immunol. 33, 287-296].
Five-week-old female MRL/lpr mice received P140 or peptide P140(MO) intravenously as described (Monneaux et al., 2003, Eur. J. Immunol. 33, 287-296). All experimental protocols were carried out with the approval of the local Institutional Animal Care and Use Committee (CREMEAS). As control, mice were injected with NaCl.
Twenty mice were used for each peptide or NaCl.
Statistical tests were performed using GraphPad Prism version 5.0. The two-way ANOVA test was used to analyze statistical significance of proteinuria differences between control and peptide-treated groups of mice. Survival of control and P140 analogue-treated female MRL/lpr mice was analyzed by the Kaplan-Meier method, and the significance of differences was determined by the log-rank test. For the other variables, statistical significance was assessed using the Student's t-test. p values less than 0.05 were considered significant.

C57BL/6 mice = test: K/B×N serum transfer arthritis, preventive protocol
Protocol: The TCR transgenic mice expressing the KRN and the MHC class II A^g7 molecule (K/B×N mice) have developed a severe inflammatory arthritis. The administration of serum of these mice to healthy recipient mice causes inflammatory arthritis over a period of about 15 days with a peak ignition around day 7 post-injection.
Two mouse serum administrations from K/B×N were performed (day 0 and day 2). The injection of serum (100 μl/mouse) is performed by intra-peritoneal (ip) injection in mice C57BL/6 (or B6) for 8 weeks (n=10); untreated mouse (n=10).
The P140 peptide (100 μg/100 μl; iv retro-orbital) was administered as follows:
Curative treatment: Injection at day 1 and day 4, to guide the peak of inflammatory disease. Preventive treatment: Injection at day −7 and day −2. Bleeding S0 (at day 0) is followed by bloodletting conducted every six days to dispose of serum. The study ends when inflammation has returned to its basal level, to around day 20 (see FIG. 19).
During the peak of inflammation, every day the animals are evaluated, and swelling score of articulation is established. It is ranged from 0 to 4 and based on a joint observation of the animal. In practice, this score is given for each leg (4 values) and these values are added together to get a general score that ranges from 0 to 16 (FIG. 20).

Balb/c mice = test: 31-day HDM-induced asthma model, BAL cell counts; conditions: for B cells / DCs / Eosinophils / Macrophages / Neutrophils / T cells / Total cells: BAL, per mouse
Protocol: The aim of this study was to evaluate the effect of the P140 phosphopeptide administered systemically (intravenously) in a 31-day model of HDM-induced asthma in mice. The P140 phosphopeptide was solubilized in sterile water (Braun) and 10x concentrate sterile saline was added to adjust osmolarity to 300 mosm. Osmolarity was controlled with a micro osmometer (Löser, type 15) and validated (303 mosm). The P140 phosphopeptide was used in vivo at the dose of 4 mg/kg by intravenous (i.v.) routes. Control animals received equivalent volumes (2 ml/kg) of saline (Table 8).
Nine-week-old male Balb/c mice were sensitized by intranasal (i.n.) administration of HDM extract (Stallergenes): 1 μg in 25 μl saline on days 0, 1, 2, 3, 4, and 10 μg on days 14 and 21. Mice were challenged by i.n. administration of HDM (1 μg) and/or saline on days 28, 29 and 30. Mice were treated by i.v. injection (2 ml/kg) of P140 or solvent on day 25 (see FIG. 12).
BAL was performed after airway responsiveness measurement twenty-four hours after HDM challenge as described (Daubeuf et al. 2012). Mice were anaesthetized IP (Ketamine 150 mg/kg—Xylasine 10 mg/kg). Blood was collected from the heart, centrifuged at 10,000 g for 2 min and serum stored at −20° C.
After semi-excision of the trachea, a plastic cannula was inserted, and airspace washed with 0.5 ml of 0.9% NaCl injected with a 1 ml syringe. This procedure was performed 10 times. The initial concentrated supernatant of the 2 first lavages (volume=2×0.5 ml administered, approximately 0.5 ml recovered) was collected for cytokine measurements. The remaining BAL fluid was centrifuged (300 g for 5 min, 4° C.), and cell pellets pooled. The cell pellet was suspended in 500 μl of 0.9% NaCl and used for total cell counts evaluated on a Muse® Cell Analyser (Millipore). Differential cell counts were assessed by flow cytometry (LSRII® cytometer, BD Bioscience). BAL cells were added with FCblock (0.5 μl, 553142, BD Bioscience) in a black microplate, incubated for 20 min at room temperature. Then, marker antibodies were added: CD11c-FITC (557400, BD bioscience), Gr-1-PeeFluor610 (61-5931-82, eBioscience), F4/80-PE (12-4801-82, eBioscience), CD11b-APC-Cy7 (557657, BD bioscience), CD45-AlexaFluor700 (103128, BioLegend), CD3-BV605 (564009, BD bioscience), CD19-PE-Cy7 (552854, BD bioscience). Antibodies were incubated with BAL cells for 30 min at room temperature before DAPI (5 μl, BD bioscience) addition, and flow cytometry was performed immediately.
All mice were sensitized to HDM on days 0, 1, 2, 3, 4, 14, 21, and challenged either with saline ([…]) or HDM (challenge with allergen). Results are presented as means±SEM. Differences between groups were tested for statistical significance using Student's t test for inflammatory cells and a two-way ANOVA followed by Bonferroni post-test for airway responses.

[1] = HDM + P140 (i.v. 4 mg/kg day 25, HDM-challenged)
[2] = P140 i.v. 4 mg/kg day 25, HDM-sensitized, saline-challenged (chronic asthma)
[3] = chronic asthma (saline challenge), 4 mg/kg i.v. day 25, BAL, non-significant
[4] = chronic asthma (saline challenge), 4 mg/kg i.v. day 25, BAL, p<0.05

With `CC[C@H](C)[C@H](NC(=O)[C@H](Cc1ccccc1)NC(=O)[C@H](C)NC(=O)[C@H](Cc1ccc(O)cc1)NC(=O)CNC(=O)[C@H](CCCNC(=N)N)NC(=O)[C@@H]1CCCN1C(=O)[C@H](CCCCN)NC(=O)CNC(=O)[C@H](COP(=O)(O)O)NC(=O)[C@H](CCCNC(=N)N)NC(=O)[C@H](CCCCN)NC(=O)[C@H](CO)NC(=O)[C@H](Cc1ccc(O)cc1)NC(=O)[C@@H](NC(=O)[C@H](CCSC)NC(=O)[C@H](Cc1c[nH]cn1)NC(=O)[C@@H](NC(=O)[C@@H](N)CCCNC(=N)N)[C@@H](C)CC)C(C)C)C(=O)N[C@@H](CCC(=O)O)C(=O)N[C@@H](Cc1ccc(O)cc1)C(=O)O` [Compound P140] (H-RIHMVYSKR[pS]GKPRGYAFIEY-OH; N-terminus and C-terminus assumed) the Median survival (MRL/lpr mice) was 29 weeks, the “Clinical signs (swelling joints, weight loss, inflammation score) (in words)” value (C57BL/6 mice; K/B×N model) was “tend to be attenuated” and the Weight loss (C57BL/6 mice; preventive protocol (injection day −7 and day −2), day 1 to day 7, controls 10%) was 5%. For the same molecule, the “Increase in size of joints, right back legs” value (C57BL/6 mice; preventive protocol, day 0 to day 7, control mice about 22%) was “around 12%”, the “Increase in size of the joint, left hind paws” value (C57BL/6 mice; preventive protocol, day 0 to day 7, controls about 30%) was “about 15%” and the “General inflammation score, maximum” value (C57BL/6 mice; preventive protocol, sum of four legs, controls around 7, p=0.0156) was ≤ 5. For the same molecule, the “Increase in size of articulation, left front leg” value (C57BL/6 mice; preventive protocol, controls 45%, P=0.0397) was 20%, the “Swelling in the joints of right front leg” value (C57BL/6 mice; preventive protocol, controls nearly 45%, p=0.0069) was “+20%” and the B cells (Balb/c mice; [1]) was 59092 and 102246 and 42085 and 25443 and 116814 and 115000 and 53947 and 170980. The DCs (Balb/c mice; [1]) was 1034 and 2238 and 1793 and 242 and 586 and 1350 and 733 and 1928, the Eosinophils (Balb/c mice; [1]) was 955824 and 1404942 and 636065 and 342046 and 1283190 and 1036803 and 538210 and 1010686 and the Macrophages (Balb/c mice; [1]) was 58705 and 118771 and 314326 and 126002 and 34364 and 38709 and 29121 and 73491. The Neutrophils (Balb/c mice; [1]) was 606700 and 510027 and 500004 and 147616 and 371317 and 487119 and 284503 and 24426, the T cells (Balb/c mice; [1]) was 400329 and 735865 and 383074 and 243813 and 469834 and 502985 and 334784 and 1056303 and the Total cells (Balb/c mice; [1]) was 2140000 and 2992000 and 2190000 and 1010000 and 2310000 and 2220000 and 1270000 and 2410000. For the same molecule, the B cells (Balb/c mice; [2]) was 2297 and 44688 and 22879 and 11101 and 7660, the DCs (Balb/c mice; [2]) was 0 and 484 and 461 and 319 and 160 and the Eosinophils (Balb/c mice; [2]) was 124514 and 450346 and 448074 and 205568 and 239527. For the same molecule, the Macrophages (Balb/c mice; [2]) was 130734 and 267685 and 360987 and 177815 and 73725, the Neutrophils (Balb/c mice; [2]) was 2584 and 35734 and 23986 and 34836 and 2394 and the T cells (Balb/c mice; [2]) was 57711 and 323523 and 294011 and 208439 and 86810. The Total cells (Balb/c mice; [2]) was 448000 and 1390000 and 1510000 and 815000 and 484000, the “Inflammatory cell recruitment in BAL (in words)” value (Balb/c mice; HDM-challenged mice, in comparison to the solvent group) was “no effect” and the “Number of B cells, change vs solvent group” value (Balb/c mice; [3]) was −40%. The “Number of eosinophils, change vs solvent group” value (Balb/c mice; [3]) was −25%, the “Number of macrophages, increase vs solvent group” value (Balb/c mice; [4]) was 4.5 fold and the “Number of neutrophils, change vs solvent group” value (Balb/c mice; [4]) was −71%.

From US20210308211A1, “METHOD OF TREATING VIRAL INFECTIONS” (priority 2020, published 2021)
